From patent US8377913B2, “Vitamin D receptor activators and methods of making” (AbbVie Inc., priority 2007, dated 2013)

Columns and labels:
[1] = test system: Thrombomodulin mRNA in human coronary artery smooth muscle cells (CASMC); test: Thrombomodulin mRNA in CASMC; type: cell-based; details: Homo sapiens
Method: Primary culture of human coronary artery smooth muscle cells (CASMC) (commercially available from Cambrex, Walkersville, Md.) were grown in smooth muscle growth medium SmGM-2 (commercially available from Lonza Bioscience) containing 5.5 mM glucose, 5% FBS, 50 μg/ml gentamicin, 50 ng/ml amphotericin-B, 5 μg/ml insulin, 2 ng/ml human recombinant fibroblast growth factor (hFGF), and 0.5 ng/ml human recombinant epidermal growth factor (hEGF) at 37° C. in a humidified 5% CO2-95% air atmosphere. Cells were grown to >80% confluence and used within five passages.
Real-time reverse transcription-PCR was performed with a MyiQ Real-Time PCR Detection System (BioRad, Hercules, Calif.). Each sample has a final volume of 25 μl containing 100 ng of cDNA, […] each of the forward and reverse PCR primers and […] of the TaqMan™ probe for the gene of interest (Applied Biosystems, Foster City, Calif.). Temperature conditions consisted of a step of 5 minutes at 95° C., followed by 40 cycles of 60° C. for 1 minute and 95° C. for 15 seconds. Data was collected during each extension phase of the PCR reaction and analyzed with the software package (BioRad, Hercules, Calif.). Threshold cycles were determined for each gene. […]

[2] = test system: 5/6 nephrectomized rats; test: Aortic Calcification in Uremic Rats; type: in vivo, rat; details: 5/6 NX rats, at <100 μg/kg, i.p. 3 times per week for 41 Days
Method: 5/6 nephrectomized rats: Male Sprague-Dawley, 5/6 NX rats (˜200 g) were obtained from Charles River. The nephrectomy was performed using a standard two-step surgical ablation procedure. Beginning approximately 2 weeks post-nephrectomy, rats were maintained on a hyperphosphatemia-inducing diet (0.9% phosphorus and 0.6% calcium) for the duration of the study to induce secondary hyperparathyroidism (SHPT). After four weeks on the special diet, rats received vehicle (5% ethanol/95% propylene glycol; 0.4 mL/kg; i.p.) or test agent 3 times per week for 41 Days. On Days 0, 13, and 41 blood was collected (24 hours post-dose).
To minimize bias induced by variance in the disease state, 5/6 NX rats were assessed after 4 weeks of high phosphorus diet (prior to treatment) and the following inclusion/exclusion criteria were applied to the rats for study: • Serum creatinine=0.8-2.0 mg/dL (sham controls=0.43±0.01 mg/dL; n=20) • Exclude: serum calcium≦8.5 mg/dL (sham controls=10.05±0.05 mg/dL; n=20) • Exclude: serum phosphorus>12 mg/dL (sham controls=7.09±0.12 mg/dL; n=20) • Exclude: iPTH<400 pg/mL (sham controls=430±33 pg/mL; n=20)
Measurement of PTH and serum mineral levels: Serum PTH was measured using a rat intact PTH ELISA kit (ALPCO/lmmutopics, Inc., Windham, N.H.). Serum calcium, phosphorus, creatinine and BUN concentrations were measured using an Abbott Aeroset® (Abbott, Abbott Park, Ill.). […]

[3] = test system: 5/6 NX uremic rats; test: Study 2: left ventricular hypertrophy (LVH) in 5/6 NX uremic rats; type: in vivo, rat; details: 1, 10 and 100 μg/kg, 3×/wk for 6 wks
Method: Study 2: To determine if treatment with Example 1 (1, 10 & 100 μg/kg) reduces left ventricular hypertrophy (LVH) in 5/6 NX uremic rats.
Methods: Previous studies have shown that the 5/6 NX rat is hypertensive and presents with left ventricular hypertrophy. Therefore, 5/6 NX rats were received from Charles River at 2 weeks uremia and fed TD04151 (0.6% Ca and 0.9 % P) 4 weeks prior to study. 5/6 NX rats were treated with Example 1 (1, 10 & 100 μg/kg) or vehicle (95% PG/5% EtOH) 3×/week for six weeks. On Days 0, 13 and 41 blood was drawn (24 hours post-dose). At the end of the six week treatment period, rats were anesthetized with isoflurane and echocardiography was performed. Left ventricular mass was determined according to the American Society of Echocardiography recommendations using the cube method. After euthanasia, direct measurements of left ventricular weight were obtained. Note: Vehicle treated SHAM and 5/6 NX rats (3×/week for six weeks) from previous studies were included in this study for comparison purposes. All values are mean±SEM. Data was analyzed using ANOVA and where noted t-test. * Indicates p<0.05 compared to SHAM.

[4] = test system: 5/6 NX rats; test: Study 1: serum PTH, ionized Ca++, total Ca++ and phosphorus in the 5/6 NX rat model; type: in vivo; details: for decrease in PTH: Day 0 vs. Day 13
Method: Study 1: The purpose of the study was to compare the effects of Example 1 on serum PTH, ionized Ca++, total Ca++ and phosphorus in the 5/6 NX rat model.
Methods: 5/6 NX rats were fed a normal diet (Teklad 8640; 0.9% Phos. and 1.1% Ca++) for 4 weeks prior to study at 6 weeks uremia, and were maintained on this diet for the duration of the study. 5/6 NX rats were treated with vehicle and 10, 30 or 100 μg/kg of A-Example 1. Rats were dosed i.p. 3×/week for 2 weeks. Blood was collected on Days 0 and 13 for determination of concentrations of PTH, ionized Ca++, total Ca++ and phosphorus.

[5] = 5/6 NX rats, 100 μg/kg i.p. 3×/week for 2 weeks

SMILES: C=C1[C@H](O)CC(=C/C=C2\CCC[C@]3(C)[C@@H]([C@H](C)COC(=O)C(C)(C)C)CC[C@@H]23)C[C@H]1O [Example 1, (2S)-2-[(1R,3R,7E, 17β)-1,3-dihydroxy-2-methylene-9,10-secoestra-5,7-dien-17-yl]propyl pivalate]
- EC50 [1]: 2.2 nM
- effect on aortic calcification [2]: did not have an effect
- exacerbation of LVH compared to controls [3]: no exacerbation
- decrease in PTH ([4]; 5/6 NX rats, 30 μg/kg i.p. 3×/week for 2 weeks): 26%
- ionized Ca++ [4, 5]: elevated
- total Ca++ [4, 5]: elevated
- decrease in PTH [4, 5]: 78%
- serum phosphorus levels ([4]; 5/6 NX rats, 10, 30 or 100 μg/kg i.p. 3×/week for 2 weeks): did not affect
